Test results as given in the NIST ThermoML archive (doi:10.1016/j.jct.2015.09.032).
± gives the expanded uncertainty stated by the source.

What was measured:
[1] = Crystal; DTA
[2] = Molar enthalpy of transition or fusion; details: Crystal; DSC

Compound: CN(C)CCOC(c1ccccc1)c1ccccc1.Cl [2-diphenylmethoxy-N,N-dimethylethanamine hydrochloride]
- Normal melting temperature [1]: 169.2 ± 0.61 °C
- Molar enthalpy of transition or fusion [2]: 36.5 ± 1.7 kJ/mol
